The test system of test [1] is T47D cells. Nature of the test: ER and FOXA1 ChIP-seq upon BYL719 treatment. In kind it is cell-based, human. As to the method: Cells were crosslinked with 1% paraformaldehyde added directly to the culture medium to a final concentration of 1% and incubated at room temperature for 15 minutes. The crosslinked cells were quenched with ice-cold glycine for 5 minutes, washed with PBS and collected. The cells were then lysed with SDS lysis buffer (10 ml of 1% SDS, 10 mM EDTA, 50 mM Tris-HCl, pH 8.1) containing protease and phosphatase inhibitors for 15 minutes prior to sonication. Cells were sonicated in 10-s pulses for a total of 10 min. […]
Paired ends 36 bp sequencing was performed at the Genomics Core of Memorial Sloan Kettering Cancer Center using HiSeq (Illumina). Reads were first processed with Trimmomatic to remove the adaptor sequences and bases with quality scores below 20 and reads with less than 30 remaining bases were discarded^34. Trimmed reads were then aligned to hg19 human genome with the bowtie aligner^35. […] To find a set of peaks that are reproducible across the two biological replicates of a given cell condition, the per-replicate P-value of each peak was calculated using only the read count at the peak from the individual replicate and estimated the irreproducible discovery rate (IDR)^37 from the two sets of P-values that the replicates produced. […]
Differentially accessible peaks from combined atlas were identified with […] by counting all read ends overlapping peaks in each condition. […]

Test [2] relates to enhancers or promoters of canonical ER target genes in T47D and MCF7 cells. Nature of the test: ChIP-qPCR of ER, FOXA1, PBX1 and H3K4me1/2 occupancy at ER target genes. It is filed as cell-based, human. Particulars: DMSO or BYL719 for 24 h. As to the method: (§1) Cells were crosslinked with 1% paraformaldehyde added directly to the culture medium to a final concentration of 1% and incubated at room temperature for 15 minutes. The crosslinked cells were quenched with ice-cold glycine for 5 minutes, washed with PBS and collected. The cells were then lysed with SDS lysis buffer (10 ml of 1% SDS, 10 mM EDTA, 50 mM Tris-HCl, pH 8.1) containing protease and phosphatase inhibitors for 15 minutes prior to sonication. Cells were sonicated in 10-s pulses for a total of 10 min. The sheared chromatin was diluted with ChIP Dilution buffer (0.01% SDS, 1.1% Triton X-100, 1.2 mM EDTA, 16.7 mM Tris-HCl, pH 8.1, 167 mM NaCl) and incubated overnight with Protein G Dynabeads (Thermo Fisher Scientific), which were pre-incubated with specific antibodies. ChIP antibodies to the following proteins were used: FOXA1 (ab5089) Abcam, PBX1 (H00005087-MO1) from Abnova, ER alpha (sc-543) from Santa Cruz and rabbit KMT2D homemade antibody which was generated by Eurogentec (third bleed) and affinity purified against GRARLKSTASSIC peptide (SEQ ID NO: 36). […]

In test [3] the test system is breast tumor samples from patients. In words: ATAC-seq of paired breast tumor biopsies from patients treated with BYL719. In kind it is in vivo, human. The following applies: paired tumor biopsies prior to therapy and on-therapy. From the text: Starting from fastq files containing ATAC-seq paired-end reads, sequencing adaptors were removed using Trimmomatic^34. Trimmed reads were mapped to the hg19 human genome using Bowtie2^35 allowing at most 1 seed mismatch and keeping only uniquely aligned reads. Duplicates were removed using Picard (http://picard.sourceforge.net). For peak-calling the read start sites were adjusted (reads aligning to the +/−strand were offset by +4 bp/−5 bp, respectively) to represent the center of the transposon binding-event, as described in Buenrostro et al.^21 For each samples, ATAC-seq was run on two biological replicates. Peak calling was performed on each condition individually by pooling reads from biological replicates and using MACS2^36 with a permissive P-value threshold (−p 1e−2). To find a set of peaks that are reproducible across the two biological replicates of a given cell condition, we calculated the per-replicate P-value of each peak using only the read count at the peak from the individual replicate and estimated the irreproducible discovery rate (IDR)^37 from the two sets of P-values that the replicates produced. […] Differentially accessible peaks from this atlas were identified with edgeR^38 by counting all read ends overlapping peaks in each condition. edgeR was run with default settings, a fold-change threshold of 2 and FDR <0.01. […]

Test [4] concerns KMT2D. Nature of the test: ChIP-qPCR time course for KMT2D, H3K4me1 and H3K4me2 upon BYL719. It is filed as cell-based, human. Particulars: BYL719 (1 μM) for 2, 4, 8, 12 and 24 h. As to the method:
as §1
For orientation: Quantitative PCR measures a nucleic acid by following its amplification.

For test [5], the system named is T47D and MCF7 cells. In words: MTT cell viability assay. In kind it is cell-based, human. The following applies: BYL719 for 5 days. From the text:
When indicated, MCF7 or T47D cells were transduced with lentiviruses expressing empty vector (pLKO. 1) or an shRNA against KMT2D (pLKO. 1) (disclosed in Table 1) or shRNA against FOXA1, shFOXA1 #1 TRCN0000014882; shFOXA1 #2: TRCN0000014880; or shRNA against PBX1, shPBX1 #1: TRCN0000020390; shPBX1 #2: TRCN0000020391). When indicated, MCF7 cells were transduced with pTRIPZ vectors (TRE-RFP-miR30/shRNA-UBC-IRES-PURO) targeting PBX1 or FOXA1 knockdown upon doxycycline administration. When indicated, MCF7 cells were transduced with LT3REPIR (pRRL) vector (T3G-dsRED-mirE/shRNA-PGK-PURO-IRES-rtTA3) targeting KMT2D knockdown upon doxycycline administration. For lentiviral production, 293T cells were transfected with pCMV-VSVG, pCMV-dR8.2 and the plasmid of interest using lipofectamine 3000 according to the manufacture's protocol.
BYL719 was obtained from the Stand Up to Cancer (SU2C) pharmacy. BYL719 was dissolved in DMSO for in vitro experiments. The MTT assay was used to measure cell viability. Briefly, 5000 cells were seeded in 96 well plates, treated with BYL719 for 5 days and assayed using 0.25% MTT (Sigma) and 50 mM sodium succinate (Sigma) for 3 hours. After the formazan crystals were dissolved with DMSO, the absorbance was measured at 570 nm of wavelength. Doxycycline was purchased from Sigma.

Test [6] relates to MCF7 xenografts. In words: MCF7 inducible shRNA in vivo xenograft. The arrangement: species or system athymic Foxn1nu mice. As to the method: Animals were maintained based on the institutional guidelines of Memorial Sloan Kettering Cancer Center (Protocol number 12-10-019). 6×10^6 MCF7 cells in 1:1 DF12 media/Matrigel (Corning) were injected subcutaneously into four to six week old female athymic Foxn1^nu mice. Mice were randomized when tumors reached ˜[…] of volume. 5 mice, 10 tumors were then treated with BYL719 (25 mg×kg^−1 in 0.5%) in carboxymethylcellulose (Sigma) daily for the indicated times. Tumors were collected at the end of the experiments, two to four hours after the last treatment.
Two way t-tests were performed using GraphPad Prism (GraphPad Software), P-values are indicated in the respective graphs. All cellular experiments were repeated at least three times. The in vivo experiments contained 10 tumors for each treatment arm and the sample size was chosen to reflect a difference in means of 20% with a power of 90%. Before the commencement of the in vivo experiments, animals were measured and randomized in groups with similar average tumor volume. Bioinformatics statistics are indicated in the respective method descriptions.

Test [7] concerns ER-dependent genes in T47D and MCF7 cells. Nature of the test: RT-qPCR of ER-dependent genes in hormone depleted cells. In kind it is cell-based, human. The following applies: cells treated with BYL719 (1 μM) for 24 h. The source says:
All cell lines were obtained from ATCC and used at low passages. T47D cells were maintained in RPMI 1640 with 10% FBS, 1% L-glutamine and 1% penicillin-streptomycin. MCF7 cells were maintained in DF-12 DMEM Dulbecco medium with 10% FBS, 1% L-glutamine and 1% penicillin-streptomycin. HEK 293T cells were maintained in DMEM Dulbecco medium supplemented with 10% FBS, 1% L-glutamine and 1% penicillin-streptomycin. For RNA analysis, MCF7 cells or T47D cells underwent hormonal starvation. MCF7 and T47D were cultured for 3 days in phenol-red-free DF12 DMEM and phenol-red-free RPMI respectively, media was supplemented with 5% charcoal/dextran-treated FCS. Cells were induced with E2 (100 nM), BYL719 (1 μM) or vehicle (DMSO) for 24 hours.
Total RNA was extracted from patient biopsies tissue using TRIzol (Life Technologies) and treated with DNAse before cDNA synthesis. cDNA synthesis was performed using the Bio-Rad cDNA synthesis kit according to the manufacturer's instructions. RNA was isolated from cells using the QIAGEN RNeasy kit. The qPCR SYBR green mix (Applied Biosystems) was used to amplify specific cDNA fragments with the oligonucleotides listed in Extended figure using the ViiA™ Real Time PCR system (Applied Biosystems). The data were analyzed by the change-in-threshold (2^−ΔΔCT) method using Actin or GAPDH as a housekeeping genes to obtain relative RNA expression. […]

Consider one compound from patent US11248229B2, “Inhibition of KMT2D for the treatment of cancer” (MEMORIAL SLOAN-KETTERING CANCER CENTER, priority 2016, dated 2022).

As to `Cc1nc(NC(=O)N2CCC[C@H]2C(N)=O)sc1-c1ccnc(C(C)(C)C(F)(F)F)c1` [BYL719], the “co-occupancy of ER and FOXA1 at specific target loci” value in test [1] (BYL719 (1 μM) for 24 h) is “increased co-occupancy of ER and FOXA1”. Besides, the “ER binding events (ER ChIP-seq)” value in test [1] (DMSO or BYL719 for 24 h) was “induced differential ER binding”. Besides, the “binding of ER, FOXA1 and PBX1 to enhancers or promoters of canonical ER target genes” value in test [2] is “significantly enhanced”. Besides, the “chromatin accessibility in regions responsive to PI3K inhibition” value in test [3] is listed as “increase in chromatin accessibility”. Also, in test [4], the “KMT2D recruitment at regulatory regions” value is on record as “peaked at early hours” and the “abundance of H3K4me1/2 occupying regulatory regions” value was “elevated at the same time points”. The “cell viability, KMT2D knockdown combined with BYL719” value in test [5] (ER-positive cell lines) was “greater effect”. Besides, the “viability of cells treated with BYL719 upon FOXA1 and PBX1 silencing” value in test [5] (constitutive or inducible shRNAs) is given as “decrease the viability”. In test [6] (MCF7 inducible shKMT2D xenografts, BYL719 daily 25 mg/kg), the “antitumor effect of silencing KMT2D in the presence of BYL719” value is recorded as “enhanced”. Moreover, in test [6] (MCF7 xenografts, inducible shFOXA1, BYL719 daily 25 mg/kg), the “anti-tumor activity of BYL719 with FOXA1 silencing” value is “markedly increased the anti-tumor activity”. Further, the “expression of ER-dependent genes in the absence of KMT2D” value in test [7] was “decrease of expression”.
